Experimental data reported in US20260356887A1, “NOVEL MYD88 INHIBITOR FOR TREATMENT OF AUTOIMMUNE DISEASES AND USES THEREOF” (S&K THERAPEUTICS, priority 2023, published 2026).
Structures can show the parent of a compound that is named as a salt. No end group written: not given here.

Assays:
[1] = tested on: C57BL/6 mice with MOG35-55-induced EAE; assay: MOG35-55-induced experimental autoimmune encephalomyelitis (EAE) model; assay type: in vivo, mouse
Protocol: Eight-week-old female C57BL/6 (B6) mice (Orient Bio, Korea) were maintained in a specific pathogen-free environment on a standard laboratory ad libitum diet. All experiments were approved by the Animal Care and Use Committee [NDIC Approval Nos. 12022111 (EAE) and I2022053-3 (psoriasis), Hwaseong, Korea] and were performed in accordance with relevant guidelines and regulations.
EAE was induced in mice using the Hooke Kit (MOG35-55/complete Freund's adjuvant (CFA) Emulsion PTX (Hooke Laboratories, LLC, Lawrence, MA, USA)) according to the manufacturer's protocol. Mice were immunized subcutaneously with myelin oligodendrocyte glycoprotein emulsified in complete Freund's adjuvant. […]
Mice were weighed and examined daily, and EAE symptoms were assessed using the following standard scoring system: 0-6: 0, no symptoms; 1, limp tail; 2, limp tail and hind limb paralysis; 3, paralysis of one or more hind limbs; 4, complete hind limb and hindquarter paralysis; 5, hindquarter paralysis with forelimb paralysis; and 6, death. […]
To investigate the therapeutic potential of MyDIP2-4 on EAE progression, mice were immunized with MOG35-55 peptide in CFA and pertussis toxin was administered once on day 0 and again 24 hours later. […] Mouse body weight and EAE clinical scores were recorded three times a week: days 0, 2, 5, 7, 9, 12, 14, 16, 19, and 21.

[2] = tested on: C57BL/6 mice with IMQ-induced psoriasis; assay: Imiquimod-induced psoriasis model; assay type: in vivo, mouse; details: MyDIP2-4 5 and 20 mg/kg i.p., dexamethasone 10 mg/kg oral
Protocol: Six-week-old female C57BL/6 mice (Orient Bio, Seongnam, Korea) were housed under specific pathogen-free conditions on a standard laboratory ad libitum diet. Animal experiments related to psoriasis were approved by the Animal Care and Use Committee [NDIC Approval Nos. 12022111 (EAE) and I2022053-3 (psoriasis), Hwaseong, Korea] and were performed in accordance with relevant guidelines and regulations.
Disease was induced by topical application of Aldara cream (Donga ST; Seoul, Korea) containing 5% imiquimod onto the back of six-week-old female C57BL/6 mice for 5 consecutive days. MyDIP2-4 was administered intraperitoneally at doses of 5 and 20 mg/kg. As a positive control group, dexamethasone (Sigma-Aldrich; cat. No. D1756) was administered orally at a dose of 10 mg/kg. Five days later, mice were sacrificed under respiratory anesthesia, and skin lesions were collected for histological examination.
An objective scoring system to quantify the severity of back skin inflammation was established based on the PASI scoring system, a widely used clinical tool to assess psoriasis severity. On a scale from 0 to 4, factors such as erythema, scaling, wrinkles, and thickness were individually assessed as follows: 0, none; 1, weak; 2, moderate; 3, significant; and 4, very evident. Under the careful supervision of experienced investigators, erythema, scaling, and thickness were graded. The cumulative score (erythema+scaling+thickness score, scale 0-12) indicates the severity of psoriasis symptoms.
Skin tissue was removed, the upper layer was fixed in neutral formalin, and H&E staining and IHC were performed. Epidermal thickness of skin tissue was measured using H&E staining. IL-17, KI-67, and IL-23 levels were measured using IHC with the aid of antibodies against IL-17A (Thermo Fisher Scientific; cat. No. PA5-79470), KI-67 (Cell Signaling; cat. No. 12202), and IL-23 (Novus Biologicals; cat. No. NBP1-76697).
To establish an IMQ-induced psoriasis model, Aldara cream containing 5% imiquimod was topically applied onto the back of six-week-old female C57BL/6 mice for 5 consecutive days. […]

human MyD88 protein = human MyD88 protein (Homo sapiens, UniProt Q99836); assay: Surface plasmon resonance (SPR) analysis of MyDIP2-4 and MyD88; assay type: binding; details: MyD88 immobilized on NTA chip, MyDIP2-4 0.8 to 12.8 μM in PBS
Protocol: The biophysical interactions between MyDIP2-4 and MyD88 were evaluated using SPR analysis in an iMSPR-mini system (icluebio, Seongnam, Korea). MyD88 protein was immobilized on the surface of a nitrilotriacetic acid (NTA) sensor chip at a concentration of 50 μg/ml. MyDIP2-4 was injected into the MyD88-binding chip at various concentrations ranging from 0.8 to 12.8 μM (dissolved in PBS) at a flow rate of 50 μl/min. PBS was used as a running buffer and injected into the empty channel as a reference. Experiments were performed twice using freshly prepared reagents, and data were analyzed using TraceDrawer software (Ridgeview Instruments; Uppsala, Sweden).
SPR technology was used to evaluate the biophysical interaction between the MyDIP2-4 peptide and the MyD88 protein. SPR analysis involves immobilizing the MyD88 protein on the surface of a sensor chip and then flowing the MyDIP2-4 peptide at various concentrations.

RAW 264.7 cells = assay: Macrophage viability (MTT assay) in RAW 264.7 cells; assay type: cell-based; details: mouse macrophages; 50 μM; 24 hours
Protocol: THP-1 and RAW 264.7 cells (ATCC, Manassas, VA, USA) were cultured at 37 °C and 5% CO2 in RPMI (Roswell Park Memorial Institute) medium and Dulbecco's modified Eagle medium supplemented with fetal bovine serum (FBS, 10%), 4 mM L-glutamine, 1 mM sodium pyruvate, penicillin (100 units/ml), and streptomycin (0.1 mg/ml). THP-1 cells, which are monocytes, were differentiated into macrophages by treatment with 80 nM phorbol 12-myristate 13-acetate (PMA, Sigma-Aldrich) for 24 hours. The cells were cultured at 37 °C and 5% CO2 in a humidified incubator (Thermo Fisher Scientific, Inc.), and the medium was replaced every 18 hours.
To evaluate the cytotoxic effect of the peptide on mouse and human macrophages, RAW 264.7 cells and THP-1-derived macrophages were seeded at respective densities of 5×10^4/well and 2×10^5/well in 96-well plates (BD Biosciences, San Jose, CA, USA) followed by culture overnight at 37 °C in a humidified incubator. After treating the cells with the peptide at the corresponding concentration for 24 hours, viability was measured using 3-(4,5-dimethylthiazol-2-yl)-2,5-diphenyltetrazolium bromide (MTT) assay (Sigma-Aldrich). […] Relative cell viability was calculated by measuring absorbance at 570 nm, and the untreated control group was designated as having a relative viability of 100%. […]

human MyD88 protein, sequence (Q99836 whole entry): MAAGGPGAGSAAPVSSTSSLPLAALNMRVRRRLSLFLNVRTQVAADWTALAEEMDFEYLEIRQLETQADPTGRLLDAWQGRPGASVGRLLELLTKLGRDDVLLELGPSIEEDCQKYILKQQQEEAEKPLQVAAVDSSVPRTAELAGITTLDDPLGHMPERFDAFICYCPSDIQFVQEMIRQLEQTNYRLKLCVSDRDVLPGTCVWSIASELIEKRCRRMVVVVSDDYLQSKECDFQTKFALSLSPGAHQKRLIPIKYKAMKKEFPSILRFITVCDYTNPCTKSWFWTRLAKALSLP

`COC(=O)/C=C/C(=O)OC` [DMF, dimethyl fumarate] was tested, and the “EAE clinical score compared to MyDIP2-4” value ([1]; day 21, DMF 100 mg/kg vs MyDIP2-4 40 mg/kg) was “reduced clinical scores”.
With `C[C@@H]1C[C@H]2[C@@H]3CCC4=CC(=O)C=C[C@]4(C)[C@@]3(F)[C@@H](O)C[C@]2(C)[C@@]1(O)C(=O)CO` [dexamethasone] the epidermal thickness ([2]; H&E) was “significantly reduced”, the “IL-17 expression in skin tissue” value ([2]; IHC) was “did not inhibit” and the “KI-67 in skin tissue (KI-67-positive cells)” value ([2]; IHC) was “significant decrease”.
In the case of “RQIKIWFQNRRMKWKKWLWFILFKKLSLP [MyDIP2-4]”, the kon (human MyD88 protein; read-out: rate constant for association (Ka)) is reported as 3.7 M⁻¹ s⁻¹, the koff (human MyD88 protein; read-out: rate constant for dissociation (Kd)) is reported as 1.37e-07 s⁻¹ and the “body weight compared to DMF-treated mice (EAE)” value ([1]; MyDIP2-4 40 mg/kg i.p. once daily, DMF 100 mg/kg) is reported as “no difference in body weight”. For the same molecule, the “cytotoxicity (MTT)” value (RAW 264.7 cells) was “not cytotoxic”.
